Where “and” joins values, the source holds several entries; their conditions need not be identical. Identical values can stand only once.
Experiments:
S. mansoni TGR = target: T1, S. mansoni TGR (Schistosoma mansoni, UniProt Q962Y6); assay: S. mansoni TGR enzyme inhibition (DTNB reduction); format: biochemical
T1 construct: made in house
T1 sequence (Q962Y6 1-598): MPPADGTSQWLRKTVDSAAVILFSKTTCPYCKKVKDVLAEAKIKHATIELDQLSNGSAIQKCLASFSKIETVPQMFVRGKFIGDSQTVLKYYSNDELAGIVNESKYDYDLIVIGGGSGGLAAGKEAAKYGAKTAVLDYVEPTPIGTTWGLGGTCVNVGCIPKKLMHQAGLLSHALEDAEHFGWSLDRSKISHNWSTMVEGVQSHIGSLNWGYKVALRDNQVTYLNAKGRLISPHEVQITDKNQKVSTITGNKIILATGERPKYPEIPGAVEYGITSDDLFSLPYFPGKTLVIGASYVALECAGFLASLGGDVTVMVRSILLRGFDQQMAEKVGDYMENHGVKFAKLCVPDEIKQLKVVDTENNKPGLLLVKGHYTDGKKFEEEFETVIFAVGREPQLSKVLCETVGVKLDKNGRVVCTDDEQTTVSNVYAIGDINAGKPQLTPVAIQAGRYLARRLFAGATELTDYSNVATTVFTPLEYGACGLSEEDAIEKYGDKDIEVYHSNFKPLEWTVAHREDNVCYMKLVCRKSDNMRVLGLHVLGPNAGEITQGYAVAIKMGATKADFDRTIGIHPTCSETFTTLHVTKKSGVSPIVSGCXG
Description: Recombinant TGR, human TrxR1, B. malayi (Bm)TrxR and human GR proteins were expressed and purified as described[20],[69],[79]. The codon optimized sequence for P. falciparum (PfTrxR, https://www.ncbi.nlm.nih.gov/protein/CAA60574.1/) with an N-terminal 6-His tag was synthesized and inserted into pET15b (GenScript) and expressed in BL21 (DE3) cells and purified as described for human GR[20]. TGR and TrxR enzyme inhibition assays were performed in triplicate at 25 °C as described[20] in 0.1 M potassium phosphate (pH 7.4), 10 mM EDTA, 100 µM NADPH and 0.01% Tween-20. […] The reaction was started with addition of an equal volume of DTNB (6 mM) and NADPH (100 µM) and the increase in A412 during the first 3 min was recorded. […] The reaction was preincubated for 15 min. Activity was initiated with the addition of 1 mM GSSG and 100 μM NADPH and initial rates of NADPH oxidation were monitored at 340 nm. The reactions were done in triplicate. The IC50 was calculated in GraphPad Prism.

[1] = target: S. mansoni histone deacetylase 8 (Schistosoma mansoni, UniProt A5H660); assay: Photolabeling of control protein SmHDAC8 with PRP; format: binding; conditions: for 800 nm Normalized Signal: SmHDAC8 1 µM
Description: (§1) TGR (1 µM) or SmHDAC8 (1 µM) was incubated at concentrations of either 5 or 50 µM PRP with or without 100 µM NADPH totaling eight samples. The photocrosslinking and CuAAC click biotinylation were performed as previously described by our group. After resolving samples on SDS-PAGE and nitrocellulose membrane transfer, western blot normalization was performed with the Licor Revert™ 700 Total Protein Stain Kit as described in their protocol. Protein was finally imaged with the Licor IRDye® 800CW streptavidin on the Odyssey Sa imager.

recombinant TGR = target: T2, recombinant TGR (Schistosoma mansoni, UniProt Q962Y6); assay: Photolabeling of TGR with PRP; format: binding, S. mansoni; conditions: for 800 nm Normalized Signal: TGR 1 µM
T2 construct: made in house
Description: as §1, with “TGR (1 µM) or SmHDAC8 (1 µM) was incubated at concentrations of either 5 or 50 µM PRP with or without 100 µM NADPH totaling eight samples.” left out

[2] = Reactivity with GSH or N-Boc protected methyl ester of selenocysteine (LCMS); format: physicochemical; conditions: up to 120 h
Description: Dimethyl bis(N-tert-butoxycarbonyl)-L-selenocystine was synthesized as reported previously. (N-tert-butoxycarbonyl)-L-selenocysteine methyl ester was prepared in situ[86] in methanol or phosphate buffer. Compound 2 was added to the solution of (N-tert-butoxycarbonyl)-L-selenocysteine methyl ester in either methanol or phosphate buffer and incubated for 40 min, 24 h, and 120 h under N2 gas balloon. Additional amounts of NaBH4 were added at 12 h and 96 h to maintain the reducing conditions. Aliquots taken from methanol solution at each of the time points were concentrated in vacuo, mixed with water, and extracted with ethyl acetate. The organic layer was separated, concentrated in vacuo, re-dissolved in methanol and analyzed by LCMS. Aliquots taken from the phosphate buffer solution were extracted with ethyl acetate. The resulting organic layer was separated and concentrated in vacuo. The residue was re-dissolved in methanol and analyzed by LCMS. […] No additional spots were detected by TLC as well.
Covalent TGR inhibitor TRi-1 was used as a positive control for the reaction with (N-tert-butoxycarbonyl)-L-selenocysteine methyl ester. The reactivity of TRi-1 was tested similarly as described above for compound 2.

TGR [3] = target: T3, TGR (Schistosoma mansoni, UniProt Q962Y6); assay: Reversibility by jump dilution; format: biochemical
T3 construct: made in house
T3 sequence (Q962Y6 1-598): T1 sequence (Q962Y6 1-598)
Description: A reaction of 370 nM TGR, 100 µM NADPH, and 250 µM inhibitor was incubated for 15 min at room temperature. A 100x dilution of the reaction was made and the activity was determined immediately and after 60 min.

TGR [4] = target: T4, TGR (Schistosoma mansoni, UniProt Q962Y6, X597U); assay: Superoxide production (pyrogallol red); format: biochemical, S. mansoni; conditions: replicates
T4 construct: made in house
Description: The production of superoxide by TGR was determined by monitoring reaction of superoxide with pyrogallol red[80]. Briefly, a 1 ml reaction mix (500 nM TGR, 100 µM NADPH, and 20–50 µM inhibitor) was incubated at room temperature for 30 min for fast inhibitors, or 2 h for slow inhibitors. For irreversible inhibitor controls TRi-1 (synthesized in house as reported[45]), Stattic (Cayman Chemical), and AF (Cayman Chemical), the samples were desalted using a Zeba spin desalting column. 100 µL of sample was combined with pyrogallol buffer with and without superoxide dismutase (SOD) (50 µM pyrogallol red, 300 µM NADPH; ± 10 units SOD). The reaction was measured at A340 and A540 simultaneously for 2 h.

TGR [5] = target: T4, TGR; assay: NADPH consumption (oxidase activity); format: biochemical, S. mansoni
Description: TRi-1, Stattic (both at 50 µM) and AF (20 µM) were incubated with 1 ml of 500 nM TGR and 100 µM NADPH in TGR reaction buffer for 30 min. The samples were desalted using a Zeba spin desalting column (Thermo Fisher Scientific) and 100 µl of the desalted sample was combined with 100 µl of 100 µM NADPH. NADPH consumption was monitored at 340 nm in triplicate. Compounds 1, 4, 6, and 7 (50 µM) were tested in the same fashion without the desalting step and with a first incubation step of 30 min for 6 and 7 and 2 h for 1 and 4.

[6] = D0: diluted 1:100, activity determined immediately, list for plotting
[7] = D60: diluted 1:100, activity determined after 60 min, list for plotting

S. mansoni histone deacetylase 8, sequence (A5H660 entry or part of it): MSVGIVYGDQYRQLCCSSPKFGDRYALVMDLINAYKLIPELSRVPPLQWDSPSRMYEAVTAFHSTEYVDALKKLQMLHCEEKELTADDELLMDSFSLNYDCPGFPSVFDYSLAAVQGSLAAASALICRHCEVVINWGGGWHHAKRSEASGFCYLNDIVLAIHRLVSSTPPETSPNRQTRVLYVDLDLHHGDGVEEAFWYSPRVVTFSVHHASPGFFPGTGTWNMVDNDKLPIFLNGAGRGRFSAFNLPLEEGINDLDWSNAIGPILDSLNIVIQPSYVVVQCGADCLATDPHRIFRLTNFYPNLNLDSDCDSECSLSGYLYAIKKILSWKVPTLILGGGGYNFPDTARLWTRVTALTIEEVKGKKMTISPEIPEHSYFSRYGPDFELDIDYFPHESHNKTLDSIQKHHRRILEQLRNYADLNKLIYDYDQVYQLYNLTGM

C#CCN(CCCNC(=O)c1c(F)c(F)c(N=[N+]=[N-])c(F)c1F)[C@@H]1C[C@@H]2C[C@H]([C@H]1C)C2(C)C [PRP]
IC50 (S. mansoni TGR; 15 min preincubation (enzyme + 100 µM NADPH + compound)): 34.9 ± 6.11 µM
inhibition at 15 µM (S. mansoni TGR; read-out: TGR % inhibition): 30.8%
inhibition at 30 µM (S. mansoni TGR; read-out: TGR % inhibition): 47.5%
inhibition at 66.7 µM (S. mansoni TGR; read-out: TGR % inhibition): 55.1%
800 nm Normalized Signal ([1]; PRP 5 µM, NADPH 0 µM): 1385
800 nm Normalized Signal ([1]; PRP 5 µM, NADPH 100 µM): 2194
800 nm Normalized Signal ([1]; PRP 50 µM, NADPH 0 µM): 298
800 nm Normalized Signal ([1]; PRP 50 µM, NADPH 100 µM): 1875
labeling of S. mansoni histone deacetylase 8 ([1]; with or without NADPH): not labeled
labeling of TGR with NADPH versus without NADPH (recombinant TGR; 5 and 50 μM PRP): more effective
800 nm Normalized Signal (recombinant TGR; PRP 2 µM, NADPH 0 µM): 57760
800 nm Normalized Signal (recombinant TGR; PRP 2 µM, NADPH 100 µM): 84928
800 nm Normalized Signal (recombinant TGR; PRP 10 µM, NADPH 0 µM): 151239
800 nm Normalized Signal (recombinant TGR; PRP 10 µM, NADPH 100 µM): 231567

COc1ccc([N+](=O)[O-])c(S(=O)(=O)c2ccc(Cl)cc2)n1 [TRi-1, reference compound]
reaction with thiol or selenol groups in GSH or protected selenocysteine [2]: An adduct between TRi-1 was detected
reversibility of TGR inhibition (TGR [3]; 250 µM inhibitor, 100-fold jump dilution): irreversible
% Activity (ID list), D0 (TGR [3]; [6]): -1.4% and -0.0373% and 0.6%
% Inhibition (ID list), D0 (TGR [3]; [6]): 101.4% and 100.0% and 99.4%
% Activity (ID list), D60 (TGR [3]; [7]): 2.1% and 1.1% and 1.2%
% Inhibition (ID list), D60 (TGR [3]; [7]): 97.9% and 98.9% and 98.8%
% Activity, 0 min (TGR [3]; [0, D0]: 15 min preincubation inhibitor + TGR + NADPH, diluted 1:100, then activity determined immediately, relative to DMSO): -1.437% and -0.03726% and 0.6084%
Inhibitor (rate), 60 min (TGR [3]; [60, D60]: 15 min preincubation inhibitor + TGR + NADPH, diluted 1:100, then activity determined after 60 min, raw rate): 0.001123 and 0.0005896 and 0.0006645
% Activity, 60 min (TGR [3]; [60, D60]: 15 min preincubation inhibitor + TGR + NADPH, diluted 1:100, then activity determined after 60 min, relative to DMSO): 2.121% and 1.115% and 1.1607%
Inhibitor (rate), -15 (TGR [3]; [-15]: 15 min preincubation inhibitor + TGR + NADPH, then activity determined, raw rate, replicates): 0.0012 and -0.0009 and -0.001
% Activity, -15 (TGR [3]; [-15]: 15 min preincubation inhibitor + TGR + NADPH, then activity determined, relative to DMSO, replicates): 2.39% and -1.793% and -3.401%
% Inhibition (ID list) (TGR [3]; before dilution (-15), list for plotting): 101.0% and 101.8% and 97.0%
Superoxide production, Pyrogallol red consumption monitored ΔA540 (TGR [4]; condition not given): -0.002664 and -0.002628 and -0.002752
Superoxide production, Pyrogallol red consumption monitored ΔA540 (TGR [4]; second of the two columns per substance (condition not given)): -5.614e-5 and -5.998e-5
NADPH consumption by TGR after exposure (TGR [5]): converted TGR to a pro-oxidant enzyme
NADPH consumption (rate/ΔOD340) (TGR [5]; replicates): -0.001513 and -0.00148 and -0.001553
